Data: PMC7468670, “Biophysical Insight into the Interaction of Human Lysozyme with Anticancer Drug Anastrozole: A Multitechnique Approach” (The Scientific World Journal, 2020)

Biological target: T1, Human lysozyme (HL) (Homo sapiens, UniProt P61626)
T1 construct: gene LYZ; commercial human lysozyme (Sigma-Aldrich), dialysed; single polypeptide, no subunits; 1REX used for docking only
T1 sequence (P61626 19-148): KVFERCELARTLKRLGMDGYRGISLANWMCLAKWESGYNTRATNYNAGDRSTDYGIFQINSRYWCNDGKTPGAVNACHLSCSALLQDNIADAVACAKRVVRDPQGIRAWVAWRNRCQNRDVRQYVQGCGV
Assay: intrinsic fluorescence quenching, modified Stern-Volmer
Type: binding
Details: 20 mM sodium phosphate pH 7.4, 310 K, 5 uM HL, excitation 280 nm; n = 1.00; double-log
Excerpt: intrinsic fluorescence quenching, modified Stern-Volmer on Human lysozyme (HL)

Compound `CC(C)(C#N)c1cc(Cn2cncn2)cc(C(C)(C)C#N)c1` [anastrozole] has a Kb of 9660 M⁻¹.
